The results in this text go back to US20260166159A1, “KRAS G12D DEGRADATION AGENT, AND PREPARATION METHOD AND USE THEREFOR” (LEADINGTAC PHARMACEUTICAL (SHAOXING) CO., LTD., priority 2022, published 2026).

What all share (assay type): cell-based
One assay deals with T1, KRAS-G12D (Homo sapiens, UniProt P01116, G12D).
T1 construct: endogenous in cells; host or cells: A-427 (ATCC), AGS, AsPc-1, Panc 04.03
The experiment in a line: KRAS-G12D degradation assay (Western Blot), A-427 cells. Conditions: A427 cells, 24 h, class symbols; for Dmax: A-427. The essentials:
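Each KRAS G12D mutant line (A-427, AGS, AsPc-1, Panc 04.03) was seeded at 5×10^5 cells/well and treated 24 h at 37 °C with 0.03–3000 nM compound (final DMSO 0.25%). KRAS in lysates was measured by Western blot, normalized to β-actin and compared with controls, giving DC50 and Dmax from curve fits.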
In general terms: A western blot detects proteins with antibodies after separation by electrophoresis.

In assay [1] the test system is KRAS G12D mutant human lung cancer cell A427. Briefly: 3D cell proliferation inhibition assay, A427. Conditions: A-427, 168 h, A427, 7 days, CTG, class symbols. The essentials: (§1)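 IC50 values derive from nonlinear fits of log dose against percent inhibition of 7-day 3D proliferation. Readout: CTG luminescence. Plating density: 5×10^2 cells/well in low-adsorption plates. Dosing: 10000–0.026 nM final, 0.2% DMSO.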

In assay [2] the test system is KRAS G12D mutant human gastric cancer cell AGS. Briefly: 3D cell proliferation inhibition assay, AGS. As to conditions: 168 h, 7 days, CTG, class symbols. The essentials:
as §1

T1 sequence (P01116 1-188 isoform P01116-2 G12D): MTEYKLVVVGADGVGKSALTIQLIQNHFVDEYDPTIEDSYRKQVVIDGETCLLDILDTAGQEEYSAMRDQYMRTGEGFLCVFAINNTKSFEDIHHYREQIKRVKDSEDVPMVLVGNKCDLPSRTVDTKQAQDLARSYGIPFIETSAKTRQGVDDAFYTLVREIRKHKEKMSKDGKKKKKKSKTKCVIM

In general, DC50 refers to the midpoint of the concentration-degradation curve. Read a high DC50 as degradation only at high concentration. By Dmax is commonly meant the greatest extent of degradation seen. Read a high Dmax as deep degradation. Broadly, the IC50 is the concentration at which inhibition is half-maximal. Read a low IC50 as greater potency in that assay. At KRAS-G12D, `C#Cc1c(F)ccc2cc(O)cc(-c3ncc4c(N5CC6CCC(C5)N6)nc(OCC5(CN6CCN(CC7CCC8(CC7)CCN(C(=O)c7ccc(OC)c(N9CCC(=O)NC9=O)c7)CC8)CC6)CCC5)nc4c3F)c12` [Example 25, 1-(5-(9-((4-((1-(((4-(3,8-diazabicyclo[3.2.1]octan-3-yl)-7-(8-ethynyl-7-fluoro-3-hydroxynaphthalen-1-yl)-8-fluoropyrido[4,3-d]pyrimidin-2-yl)oxy)methyl)cyclobutyl)methyl)piperazin-1-yl)methyl)-3-azaspiro[5.5]undecane-3-carbonyl)-2-methoxyphenyl)dihydropyrimidine-2,4(1H,3H)-dione] had a DC50 not above 50 nM and a Dmax of 50 to 80%. The compound further displayed an IC50 in assay [1] of 100 to 500 nM.
On KRAS-G12D, `C#Cc1c(F)ccc2cc(O)cc(-c3ncc4c(N5CC6CCC(C5)N6)nc(OCC5(CN6CCN(CC7CCC8(CC7)CCN(C(=O)c7ccc(Cl)c(N9CCC(=O)N(C)C9=O)c7)CC8)CC6)CC5)nc4c3F)c12` [Example 17, 1-(5-(9-((4-((1-(((4-(3,8-diazabicyclo[3.2.1]octan-3-yl)-7-(8-ethynyl-7-fluoro-3-hydroxynaphthalen-1-yl)-8-fluoropyrido[4,3-d]pyrimidin-2-yl)oxy)methyl)cyclopropyl)methyl)piperazin-1-yl)methyl)-3-azaspiro[5.5]undecane-3-carbonyl)-2-chlorophenyl)-3-methyldihydropyrimidine-2,4(1H,3H)-dione] yielded a DC50 of 1000 to 10000 nM and a Dmax of less than 30%. In addition, the IC50 in assay [2] lay in the range of 50 to 100 nM. Further, the IC50 in assay [1] was in the range of 50 to 100 nM.
For `C#Cc1c(F)ccc2cc(O)cc(-c3ncc4c(N5CC6CCC(C5)N6)nc(OCC5(CN6CCN(CCCC7CCN(C(=O)c8ccc(OC)c(N9CCC(=O)NC9=O)c8)CC7)CC6)CC5)nc4c3F)c12` [Example 8, 1-(5-(4-(3-(4-((1-(((4-(3,8-diazabicyclo[3.2.1]octan-3-yl)-7-(8-ethynyl-7-fluoro-3-hydroxynaphthalen-1-yl)-8-fluoropyrido[4,3-d]pyrimidin-2-yl)oxy)methyl)cyclopropyl)methyl)piperazin-1-yl)propyl)piperidine-1-carbonyl)-2-methoxyphenyl)dihydropyrimidine-2,4(1H,3H)-dione], the DC50 at KRAS-G12D was not above 50 nM. On KRAS-G12D, this compound registered a Dmax of 50 to 80%. Further, the values for the IC50 in assay [2] and in assay [1] were not above 50 nM and 50 to 100 nM, respectively.
In the case of `C#Cc1c(F)ccc2cc(O)cc(-c3ncc4c(N5CC6CCC(C5)N6)nc(OCC5(CN6CCN(CCCC7CCN(C(=O)c8ccc(Cl)c(N9CCC(=O)NC9=O)c8)CC7)CC6)CCC5)nc4c3F)c12` [Example 24, 1-(5-(4-(3-(4-((1-(((4-(3,8-diazabicyclo[3.2.1]octan-3-yl)-7-(8-ethynyl-7-fluoro-3-hydroxynaphthalen-1-yl)-8-fluoropyrido[4,3-d]pyrimidin-2-yl)oxy)methyl)cyclobutyl)methyl)piperazin-1-yl)propyl)piperidine-1-carbonyl)-2-chlorophenyl)dihydropyrimidine-2,4(1H,3H)-dione], on KRAS-G12D, the DC50 is not above 50 nM and the Dmax lay within 80 to 100%. This compound also gave an IC50 in assay [2] of 50 to 100 nM. In assay [1], this compound showed a 50% inhibitory concentration (IC50) of 100 to 500 nM.
The like results for `C#Cc1c(F)ccc2cc(O)cc(-c3ncc4c(N5CC6CCC(C5)N6)nc(OCC5(CN6CCC(CCOCC7CCN(C(=O)c8ccc(Cl)c(N9CCC(=O)NC9=O)c8)CC7)CC6)CC5)nc4c3F)c12` [Example 10] were, in that order, not above 50 nM, 80 to 100%, not above 50 nM and 100 to 500 nM.
As to `C#Cc1c(F)ccc2cc(O)cc(-c3ncc4c(N5CC6CCC(C5)N6)nc(OCC5(CN6CCC(COCC7CCN(C(=O)c8ccc(Cl)c(N9CCC(=O)NC9=O)c8)CC7)CC6)CC5)nc4c3F)c12` [Example 13, 1-(5-(4-(((1-((1-(((4-(3,8-diazabicyclo[3.2.1]octan-3-yl)-7-(8-ethynyl-7-fluoro-3-hydroxynaphthalen-1-yl)-8-fluoropyrido[4,3-d]pyrimidin-2-yl)oxy)methyl)cyclopropyl)methyl)piperidin-4-yl)methoxy)methyl)piperidine-1-carbonyl)-2-chlorophenyl)dihydropyrimidine-2,4(1H,3H)-dione], on KRAS-G12D, the half-maximal degradation concentration (DC50) was 50 to 100 nM and the Dmax lay in the range of 50 to 80%. The same compound had an IC50 in assay [2] not above 50 nM. This compound also returned an IC50 in assay [1] of 50 to 100 nM.
At KRAS-G12D, `CCc1c(F)ccc2cc(O)cc(-c3ncc4c(N5CC6CCC(C5)N6)nc(OCC5(CN6CCN(CCCC7CCN(C(=O)c8ccc(Cl)c(N9CCC(=O)NC9=O)c8)CC7)CC6)CC5)nc4c3F)c12` [Example 22, 1-(5-(4-(3-(4-((1-(((4-(3,8-diazabicyclo[3.2.1]octan-3-yl)-7-(8-ethyl-7-fluoro-3-hydroxynaphthalen-1-yl)-8-fluoropyrido[4,3-d]pyrimidin-2-yl)oxy)methyl)cyclopropyl)methyl)piperazin-1-yl)propyl)piperidine-1-carbonyl)-2-chlorophenyl)dihydropyrimidine-2,4(1H,3H)-dione] returned a DC50 not above 50 nM. Further, the Dmax on KRAS-G12D was 50 to 80%. Also, the IC50 in assay [2] was not above 50 nM; in assay [1], 50 to 100 nM.
As for `C#Cc1c(F)ccc2cc(O)cc(-c3ncc4c(N5CC6CCC(C5)N6)nc(OCC5(CN6CCN(CCC7CCN(C(=O)c8ccc(Cl)c(N9CCC(=O)NC9=O)c8)CC7)CC6)CC5)nc4c3F)c12` [Example 3, 1-(5-(4-(2-(4-((1-(((4-(3,8-diazabicyclo[3.2.1]octan-3-yl)-7-(8-ethynyl-7-fluoro-3-hydroxynaphthalen-1-yl)-8-fluoropyrido[4,3-d]pyrimidin-2-yl)oxy)methyl)cyclopropyl)methyl)piperazin-1-yl)ethyl)piperidine-1-carbonyl)-2-chlorophenyl)dihydropyrimidine-2,4(1H,3H)-dione], on KRAS-G12D, the half-maximal degradation concentration (DC50) was not above 50 nM and the Dmax lay in the range of 50 to 80%. Further, the half-inhibitory concentration (IC50) in assay [2] was not above 50 nM. In assay [1], this compound displayed an IC50 of 1000 to 10000 nM.
On KRAS-G12D, `CCc1c(F)ccc2cc(O)cc(-c3ncc4c(N5CC6CCC(C5)N6)nc(OCC5(CN6CCN(CC7CCC8(CC7)CCN(C(=O)c7ccc(OC)c(N9CCC(=O)NC9=O)c7)CC8)CC6)CC5)nc4c3F)c12` [Example 15, 1-(5-(9-((4-((1-(((4-(3,8-diazabicyclo[3.2.1]octan-3-yl)-7-(8-ethyl-7-fluoro-3-hydroxynaphthalen-1-yl)-8-fluoropyrido[4,3-d]pyrimidin-2-yl)oxy)methyl)cyclopropyl)methyl)piperazin-1-yl)methyl)-3-azaspiro[5.5]undecane-3-carbonyl)-2-methoxyphenyl)dihydropyrimidine-2,4(1H,3H)-dione] had a DC50 not above 50 nM and a Dmax of 80 to 100%. Moreover, the 50% inhibitory concentration (IC50) in assay [2] was not above 50 nM. Further, in assay [1], the 50% inhibitory concentration (IC50) was not above 50 nM.
Turning to `C#Cc1c(F)ccc2cc(O)cc(-c3ncc4c(N5CC6CCC(C5)N6)nc(OCC5(CN6CCN(CCCCC7CCN(C(=O)c8ccc(Cl)c(N9CCC(=O)NC9=O)c8)CC7)CC6)CC5)nc4c3F)c12` [Example 5, 1-(5-(4-(4-(4-((1-(((4-(3,8-diazabicyclo[3.2.1]octan-3-yl)-7-(8-ethynyl-7-fluoro-3-hydroxynaphthalen-1-yl)-8-fluoropyrido[4,3-d]pyrimidin-2-yl)oxy)methyl)cyclopropyl)methyl)piperazin-1-yl)butyl)piperidine-1-carbonyl)-2-chlorophenyl)dihydropyrimidine-2,4(1H,3H)-dione], on KRAS-G12D, the half-maximal degradation concentration (DC50) is not above 50 nM and the Dmax fell in the range of 80 to 100%. In addition, the IC50 in assay [2] was not above 50 nM. In assay [1], this compound registered an IC50 of 50 to 100 nM.
As to `C#Cc1c(F)ccc2cc(O)cc(-c3ncc4c(N5CC6CCC(C5)N6)nc(OCC5(CN6CCC(COCCC7CCN(C(=O)c8ccc(Cl)c(N9CCC(=O)NC9=O)c8)CC7)CC6)CC5)nc4c3F)c12` [Example 21, 1-(5-(4-(2-((1-((1-(((4-(3,8-diazabicyclo[3.2.1]octan-3-yl)-7-(8-ethynyl-7-fluoro-3-hydroxynaphthalen-1-yl)-8-fluoropyrido[4,3-d]pyrimidin-2-yl)oxy)methyl)cyclopropyl)methyl)piperidin-4-yl)methoxy)ethyl)piperidine-1-carbonyl)-2-chlorophenyl)dihydropyrimidine-2,4(1H,3H)-dione], at KRAS-G12D, the DC50 was not above 50 nM and the Dmax is 80 to 100%. In assay [2], this compound gave an IC50 not above 50 nM. This compound also showed an IC50 in assay [1] of 100 to 500 nM.
At KRAS-G12D, `C#Cc1c(F)ccc2cc(O)cc(-c3ncc4c(N5CC6CCC(C5)N6)nc(OCC(C)(C)CN5CCN(CCCC6CCN(C(=O)c7ccc(Cl)c(N8CCC(=O)NC8=O)c7)CC6)CC5)nc4c3F)c12` [Example 23, 1-(5-(4-(3-(4-(3-((4-(3,8-diazabicyclo[3.2.1]octan-3-yl)-7-(8-ethynyl-7-fluoro-3-hydroxynaphthalen-1-yl)-8-fluoropyrido[4,3-d]pyrimidin-2-yl)oxy)-2,2-dimethylpropyl)piperazin-1-yl)propyl)piperidine-1-carbonyl)-2-chlorophenyl)dihydropyrimidine-2,4(1H,3H)-dione] gave a DC50 of 1000 to 10000 nM and a Dmax of 30 to 50%. This compound also had an IC50 in assay [2] of 50 to 100 nM. Besides, the IC50 in assay [1] is 100 to 500 nM.
